Patent publication US8513423B2 (Janssen Pharmaceutica, NV, priority 2010, dated 2013)
Where a chain is given by its changes, count along the chain named. Like-named read-outs stand apart in the source and are kept apart here.

Tests used:
[1] = target: T1, purified wild type MGL (wt-MGLL 6H-11-313) (Homo sapiens, UniProt Q99685); assay: MGL enzyme activity assay (4MU-B cleavage), wild type MGL; type: biochemical; details: 10 μM 4MU-B, 5 nM enzyme, 37° C., read-out: MGL wild type inh IC50
T1 construct: purified wild type MGL (wt-MGLL 6H-11-313)
T1 sequence (Q99685 1-303): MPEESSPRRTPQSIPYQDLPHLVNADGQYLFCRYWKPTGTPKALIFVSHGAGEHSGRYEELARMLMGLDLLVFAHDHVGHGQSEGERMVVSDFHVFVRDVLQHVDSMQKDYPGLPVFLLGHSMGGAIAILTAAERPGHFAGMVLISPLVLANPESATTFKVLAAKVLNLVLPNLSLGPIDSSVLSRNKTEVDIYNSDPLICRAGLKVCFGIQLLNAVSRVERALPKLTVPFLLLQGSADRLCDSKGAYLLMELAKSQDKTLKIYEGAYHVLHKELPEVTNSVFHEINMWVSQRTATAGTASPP
Method: All rate-based assays were performed in black 384-well polypropylene PCR microplates (Abgene) in a total volume of 30 μL. Substrate 4-methylumbelliferyl butyrate (4MU-B; Sigma) and either purified mutant MGL (mut-MGLL 11-313 L179S L186S) or purified wild type MGL (wt-MGLL 6H-11-313) were diluted separately into 20 mM PIPES buffer (pH=7.0), containing 150 mM NaCl and 0.001% Tween 20. Compounds of Formula (I) were pre-dispensed (50 nL) into the assay plate using a Cartesian Hummingbird prior to adding 4MU-B (25 μL of 1.2× solution to a final concentration of 10 μM) followed by enzyme (5 μL of a 6× solution to a final concentration of 5 nM) to initiate the reaction. Final compound concentrations ranged from 17 to 0.0003 μM. The fluorescence change due to 4MU-B cleavage was monitored with excitation and emission wavelengths of 335 and 440 nm, respectively, and a bandwidth of 10 nm (Safire^2, Tecan) at 37° C. for 5 min.
The IC50 values for compounds of Formula (I) were determined using Excel from a fit of the equation to the concentration-response plot of the fractional activity as a function of inhibitor concentration.

MGL = target: T2, MGL (Rattus norvegicus, UniProt Q8R431); assay: 2-AG accumulation assay in rat brain homogenate; type: biochemical; details: compound @1 μM; for 2-AG accumulation, percent of vehicle control at 1 µM: read-out: Rat Brain 2AG % VehCntrl (%) @1 μM
T2 construct: one g rat brain was homogenized; from tissue; host or cells: rat brain homogenate
T2 sequence (Q8R431 1-303): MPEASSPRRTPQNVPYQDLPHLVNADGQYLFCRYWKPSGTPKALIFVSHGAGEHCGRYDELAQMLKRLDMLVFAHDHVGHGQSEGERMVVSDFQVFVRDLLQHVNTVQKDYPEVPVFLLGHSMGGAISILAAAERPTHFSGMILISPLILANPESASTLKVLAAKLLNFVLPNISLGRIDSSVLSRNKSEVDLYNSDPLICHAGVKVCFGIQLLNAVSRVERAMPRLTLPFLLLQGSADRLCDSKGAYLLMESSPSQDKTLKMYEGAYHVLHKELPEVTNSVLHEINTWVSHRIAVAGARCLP
Method: After a 15-min incubation time at 37° C., CaCl2 (final concentration=10 mM) was added and then incubated for 15 min at 37° C. in a total volume of 5 mL. The reactions were stopped with 6 mL organic solvent extraction solution of 2:1 chloroform/methanol. Accumulated 2-AG in the organic phase was measured by a HPLC/MS method, according to the following equation: percent vehicle=(2-AG accumulation in the presence of compound/2-AG accumulation in vehicle)×100.

mutant MGL = target: T3, mutant MGL (Homo sapiens, UniProt Q99685, L169S/L176S); assay: MGL ThermoFluor assay - mutant; type: binding
T3 construct: purified mutant MGL (mut-MGLL 11-313 L179S L186S)
T3 sequence (Q99685 1-303 L169S/L176S): T1 sequence (Q99685 1-303) with L169S, L176S
Method: The ThermoFluor (TF) assay is a 384-well plate-based binding assay that measures thermal stability of proteins^1,2. The experiments were carried out using instruments available from Johnson & Johnson Pharmaceutical Research & Development, LLC. TF dye used in all experiments was 1,8-ANS (Invitrogen: A-47). Final TF assay conditions used for MGL studies were 0.07 mg/ml of mutant MGL, 100 μM ANS, 200 mM NaCl, 0.001% Tween-20 in 50 mM PIPES (pH=7.0).
Screening compound plates contained 100% DMSO compound solutions at a single concentration. For follow-up concentration-response studies, compounds were arranged in a pre-dispensed plate (Greiner Bio-one: 781280), wherein compounds were serially diluted in 100% DMSO across 11 columns within a series. Columns 12 and 24 were used as DMSO reference and contained no compound. For both single and multiple compound concentration-repsonse experiments, the compound aliquots (46 nL) were robotically predispensed directly into 384-well black assay plates (Abgene: TF-0384/k) using the Hummingbird liquid handler. Following compound dispension, protein and dye solutions were added to achieve the final assay volume of 3 μL. The assay solutions were overlayed with 1 μl of silicone oil (Fluka, type DC 200: 85411) to prevent evaporation.
Bar-coded assay plates were robotically loaded onto a thermostatically controlled PCR-type thermal block and then heated from 40 to 90° C. degrees at a ramp-rate of 1° C./min for all experiments. Fluorescence was measured by continuous illumination with UV light (Hamamatsu LC6), supplied via fiber optics and filtered through a band-pass filter (380-400 nm; >6 OD cutoff). Fluorescence emission of the entire 384-well plate was detected by measuring light intensity using a CCD camera (Sensys, Roper Scientific) filtered to detect 500±25 nm, resulting in simultaneous and independent readings of all 384 wells. A single image with 20-sec exposure time was collected at each temperature, and the sum of the pixel intensity in a given area of the assay plate was recorded vs temperature and fit to standard equations to yield the Tm^1. • 1. Pantoliano, M. W., Petrella, E. C., Kwasnoski, J. D., Lobanov, V. S., Myslik, J., Graf, E., Carver, T., Asel, E., Springer, B. A., Lane, P., and Salemme, F. R. (2001) J Biomol Screen 6, 429-40. • 2. Matulis, D., Kranz, J. K., Salemme, F. R., and Todd, M. J. (2005) Biochemistry 44, 5258-66.
The Kd values for compounds of Formula (I) were determined from a fit of the equation to the concentration-response plot of the fractional activity as a function of Tm. For some experiments, quantitative NMR spectroscopy (qNMR) was used to measure concentration of the initial 100% DMSO compound solutions and, using the same fitting method, qKd values were determined

[2] = compound concentration measured by qNMR, read-out: MGL mutant ThermoFluor qKd (using qNMR conc.)
[3] = 0.07 mg/ml mutant MGL, pH=7.0, read-out: MGL mutant ThermoFluor Kd

Compound	IC50 [1]	2-AG accumulation, percent of vehicle control at 1 µM (MGL)	Kd (mutant MGL; [2])	Kd (mutant MGL; [3])	Rat Brain 2AG % VehCntrl (%) @1 μM (MGL; percent vehicle)
O=C(c1ccc(Cc2ccc(C(F)(F)F)cc2)cc1)N1CCC(C2CN(C(=O)c3nccs3)C2)CC1 [Cpd 63, 4-[1-(1,3-Thiazol-2-ylcarbonyl)azetidin-3-yl]-1-({4-[4-(trifluoromethyl)benzyl]phenyl}carbonyl)piperidine]	< 5 nM	435%	17.4 nM	–	–
Cc1c(C(=O)N2CC(C3CCN(C(=O)c4cscn4)CC3)C2)sc2cc(C(F)(F)F)ccc12 [Cpd 14, 4-(1-{[3-Methyl-6-(trifluoromethyl)-1-benzothiophen-2-yl]carbonyl}azetidin-3-yl)-1-(1,3-thiazol-4-ylcarbonyl)piperidine]	5 nM	231%	–	5 nM	–
O=C(c1ccc2c(ccn2-c2ccc(F)cc2)c1)N1CCC(C2CN(C(=O)c3nccs3)C2)CC1 [Cpd 72, 1-(4-Fluorophenyl)-5-({4-[1-(1,3-thiazol-2-ylcarbonyl)azetidin-3-yl]piperidin-1-yl}carbonyl)-1H-indole]	17 nM	657%	2.7 nM	–	–
O=C(c1ccc(-c2ccc(C(F)(F)F)s2)cc1)N1CC(C2CCN(C(=O)c3cscn3)CC2)C1 [Cpd 12, 1-(1,3-Thiazol-4-ylcarbonyl)-4-[1-({4-[5-(trifluoromethyl)thiophen-2-yl]phenyl}carbonyl)azetidin-3-yl]piperidine]	10 nM	134%	–	22 nM	–
O=C(c1ccc2c(ccn2-c2ccc(C(F)(F)F)cc2)c1)N1CC(C2CCN(C(=O)c3cscn3)CC2)C1 [Cpd 37, 5-({3-[1(1,3 -Thiazol-4-ylcarbonyl)piperidin-4-yl]azetidin-1-yl}carbonyl)-1-[4-(trifluoromethyl)phenyl]-1H-indole]	< 5 nM	163%	–	16 nM	–
O=C(c1ccc2c(ccn2-c2ccc(F)c(F)c2)c1)N1CC(C2CCN(C(=O)c3cscn3)CC2)C1 [Cpd 38]	5 nM	425%	–	15.5 nM	–
O=C(c1ccc[nH]1)N1CC(C2CCN(C(=O)c3ccc(-c4ccccc4)cc3F)CC2)C1 [Cpd 47, 1-[(3-Fluorobiphenyl-4-yl)carbonyl]-4-[1-(1H-pyrrol-2-ylcarbonyl)azetidin-3-yl]piperidine]	37.9 nM	153%	33.3 nM	76.7 nM	–
1-(1H-Pyrrol-2-ylcarbonyl)-4-[1-({4-3-(trifluoromethyl)benzyl]phenyl}carbonyl)azetidin-3-yl]piperidine [Cpd 25]	12 nM	–	–	27.5 nM	540%
O=C(c1ccc2c(ccn2-c2ccc(F)cc2)c1)N1CCC(C2CN(C(=O)c3ccc[nH]3)C2)CC1 [Cpd 74, 1-(4-Fluorophenyl)-5-({4-[1-(1H-pyrrol-2-ylcarbonyl)azetidin-3-yl]piperidin-1-yl}carbonyl)-1H-indole]	13.8 nM	788%	8 nM	–	–
O=C(c1ccc2c(ccn2-c2ccc(F)cc2)c1)N1CC(C2CCN(C(=O)c3nccs3)CC2)C1 [Cpd 30, 1-(4-Fluorophenyl)-5-({3-[1-(1,3-thiazol-2-ylcarbonyl)piperidin-4-yl]azetidin-1-yl}carbonyl)-1H-indole]	< 5 nM	443%	–	2.5 nM	–
O=C(c1cccc(-c2cccc(F)c2)c1)N1CCC(C2CN(C(=O)c3ccc[nH]3)C2)CC1 [Cpd 53, 1-[(3′-Fluorobiphenyl-3-yl)carbonyl]-4-[1-(1H-pyrrol-2-ylcarbonyl)azetidin-3-yl]piperidine]	46.6 nM	225%	33.3 nM	–	–
O=C(c1ccc2c(ccn2-c2ccc(F)c(F)c2)c1)N1CCC(C2CN(C(=O)c3cscn3)C2)CC1 [Cpd 79, 1-(3,4-Difluorophenyl)-5-({4-[1-(1,3-thiazol-4-ylcarbonyl)azetidin-3-yl]piperidin-1-yl}carbonyl)-1H-indole]	9 nM	946%	3.3 nM	–	–
O=C(c1ccc(Cc2ccc(C(F)(F)F)cc2)cc1)N1CCC(C2CN(C(=O)c3cscn3)C2)CC1 [Cpd 64, 4-[1-(1,3-Thiazol-4-ylcarbonyl)azetidin-3-yl]-1-({4-[4-(trifluoromethyl)benzyl]phenyl}carbonyl)piperidine]	< 5 nM	383%	18.9 nM	–	–
O=C(c1cscn1)N1CCC(C2CN(C(=O)c3ccc(-c4ccccc4)cc3F)C2)CC1 [Cpd 9, 4-{1-[(3-Fluorobiphenyl-4-yl)carbonyl]azetidin-3-yl}-1-(1,3-thiazol-4-ylcarbonyl)piperidine]	114 nM	–	–	100 nM	–
O=C(c1cccc(-c2cccc(F)c2)c1)N1CC(C2CCN(C(=O)c3cscn3)CC2)C1 [Cpd 11, 4-{1-[(3′-Fluorobiphenyl-3-yl)carbonyl]azetidin-3-yl}-1-(1,3-thiazol-4-ylcarbonyl)piperidine]	498 nM	–	–	732 nM	–
